Holding throughout (type): functional, cell-based
In one assay the test system is A549. The experiment in a line: Cytotoxicity against human A549 cells after 96 hrs by sulforhodamine B assay.
The test system of the next assay is SW-1736. The experiment in a line: Cytotoxicity against human SW1736 cells after 96 hrs by sulforhodamine B assay. In general terms: The SRB assay estimates cell density from bound dye.
A further assay deals with A2780. The assay is described as follows: Cytotoxicity against human A2780 cells after 96 hrs by sulforhodamine B assay.
A further assay has as its system SW480. The experiment in a line: Cytotoxicity against human SW480 cells after 96 hrs by sulforhodamine B assay.
The subject of the next assay is HCT-8. The experiment in a line: Cytotoxicity against human HCT8 cells after 96 hrs by sulforhodamine B assay.
For another assay, the system named is DLD-1. The experiment in a line: Cytotoxicity against human DLD1 cells after 96 hrs by sulforhodamine B assay.
The next assay deals with HT-29. The assay is described as follows: Cytotoxicity against human HT-29 cells after 96 hrs by sulforhodamine B assay.
Assay [1] is described as follows: Cytotoxicity against human A253 cells after 96 hrs by sulforhodamine B assay.
The subject of a further assay is MCF7. The assay is described as follows: Cytotoxicity against human MCF7 cells after 96 hrs by sulforhodamine B assay.
The test system of another assay is 8505C. The assay is described as follows: Cytotoxicity against human 8505C cells after 96 hrs by sulforhodamine B assay.
The subject of another assay is FaDu. The assay is described as follows: Cytotoxicity against human FADU cells after 96 hrs by sulforhodamine B assay.
The test system of a further assay is HCT-116. The experiment in a line: Cytotoxicity against human HCT116 cells after 96 hrs by sulforhodamine B assay.
Assay [2] in a line: Cytotoxicity against human 518A2 cells after 96 hrs by sulforhodamine B assay.
A short description of assay [3]: Cytotoxicity against human Lipo cells after 96 hrs by sulforhodamine B assay.

The text below walks through data of ChEMBL document CHEMBL1629466, “Synthesis and biological activity of some antitumor active derivatives from glycyrrhetinic acid” (Eur J Med Chem, 2010).

As to `COC(=O)[C@@]1(C)CC[C@]2(C)CC[C@]3(C)C(=CC(=O)[C@@H]4[C@@]5(C)CC[C@H](OC(=O)CNCCCCCCCCCN)C(C)(C)[C@@H]5CC[C@]43C)[C@@H]2C1`, the IC50 in the assay on A549 came out at 2.23 µmol; in the assay with SW-1736 it was 3.3 µmol; in the assay with A2780, 3.3 µmol; with SW480 it was 5.74 µmol; with HCT-8, 2.42 µmol; in the assay with DLD-1, 4.5 µmol. For the same compound, the IC50 was 2.06 µmol in the assay with HT-29; 4.65 µmol in assay [1]; 3.33 µmol in the assay with MCF7; 6.18 µmol in the assay on 8505C; 5.54 µmol with FaDu; 3.44 µmol in the assay on HCT-116. The IC50 in assay [2] came to 3.12 µmol; in assay [3] it was 5.48 µmol.

With `COC(=O)[C@@]1(C)CC[C@]2(C)CC[C@]3(C)C(=CC(=O)[C@@H]4[C@@]5(C)CC[C@H](OC(=O)CNCCCCCCCN)C(C)(C)[C@@H]5CC[C@]43C)[C@@H]2C1`, the IC50 in the assay with A549 stood at 2.21 µmol; in the assay with SW-1736, 2.24 µmol; with A2780, 1.14 µmol; in the assay on SW480, 2.24 µmol; in the assay on HCT-8 it was 0.89 µmol; with DLD-1, 1.25 µmol. The IC50 in the assay on HT-29 turned out to be 0.86 µmol; in assay [1] it was 1.74 µmol; in the assay on MCF7, 0.98 µmol; with 8505C it was 2.13 µmol; in the assay on FaDu it was 2.2 µmol; in the assay on HCT-116 it was 1.7 µmol. Moreover, the IC50 came out at 1.27 µmol in assay [2] and 1.44 µmol in [3].

On to `COC(=O)[C@@]1(C)CC[C@]2(C)CC[C@]3(C)C(=CC(=O)[C@@H]4[C@@]5(C)CC[C@H](OC(=O)CCl)C(C)(C)[C@@H]5CC[C@]43C)[C@@H]2C1`, for which the IC50 was found to be 8.39 µmol in the assay with A549; 3.14 µmol in the assay with SW-1736; 6.01 µmol with A2780; 8.92 µmol with SW480; 3.97 µmol in the assay on HCT-8; 6.13 µmol with DLD-1. Also, the IC50 stood at 5.34 µmol with HT-29; 6.19 µmol in assay [1]; 6.69 µmol with MCF7; 15.86 µmol in the assay on 8505C; 12.44 µmol in the assay with FaDu; 5.13 µmol in the assay with HCT-116. Further, the IC50 amounted to 5.24 µmol in [2] and 14.55 µmol in assay [3].

Consider `COC(=O)[C@@]1(C)CC[C@]2(C)CC[C@]3(C)C(=CC(=O)[C@@H]4[C@@]5(C)CC[C@H](OC(=O)CNCCCCCN)C(C)(C)[C@@H]5CC[C@]43C)[C@@H]2C1`, for which the IC50 is 2.52 µmol in the assay with A549; 2.69 µmol with SW-1736; 2 µmol in the assay on A2780; 1.91 µmol with SW480; 1.38 µmol in the assay on HCT-8; 2.4 µmol in the assay on DLD-1. The IC50 worked out at 1.28 µmol with HT-29; 2.27 µmol in assay [1]; 1.79 µmol in the assay on MCF7; 1.78 µmol with 8505C; 3.3 µmol in the assay on FaDu; 2.19 µmol in the assay on HCT-116. Moreover, the IC50 is 2.02 µmol in assay [2] and 1.93 µmol in [3].

`CC1(C)[C@@H](O)CC[C@]2(C)[C@H]3C(=O)C=C4[C@@H]5C[C@@](C)(C(=O)O)CC[C@]5(C)CC[C@@]4(C)[C@]3(C)CC[C@@H]12` [ENOXOLONE]: the IC50 turned out to be 82.76 µmol in the assay on A549; 76.93 µmol in the assay on SW-1736; 74.57 µmol with A2780; 86.8 µmol in the assay on SW480; 78.85 µmol in the assay with HCT-8; 81.21 µmol in the assay on DLD-1. Also, the IC50 with HT-29 amounted to 80.09 µmol; in [1], 80.78 µmol; with MCF7, 84.7 µmol; with 8505C it was 86.5 µmol; with FaDu it was 84.55 µmol; in the assay on HCT-116, 78.83 µmol. In addition, the results for the IC50 in [2] and in assay [3] were 83.92 µmol and 81.44 µmol, respectively.
